The source of these data is patent US20230348450A1, “CARBOXYLIC ACID-CONTAINING COMPOUNDS AS MODULATORS OF BIS-PHOSPHOGLYCERATE MUTASE FOR THE TREATMENT OF SICKLE CELL DISEASE” (Genzyme Corporation, priority 2020, published 2023).

For assay [1], the target named is human Bisphosphoglycerate mutase (hBPGM) (Homo sapiens (Human), UniProt P07738). In words: BPGM Phosphatase Assay. In kind it is biochemical. The following applies: Table 6 additional results; read-out: huBPGM: phosphatase Enzyme EC50. The protocol:
Solutions of the test compounds were then added to the plate and the DMSO content was normalized across the plate. The plate was incubated at RT for 15 min. Next, the substrate 2,3-BPG (5 μL) was added to all the wells, and the plate was sealed and incubated for 24 hr at RT. After incubation, BIOMOL green dye (40 μL) was added to all the wells, the plate was shaken to mix, and the plate was incubated at RT for 20-30 min.

The next assay addresses hBPGM (Homo sapiens (Human), UniProt P07738). Briefly: BPGM Synthase Assay. In kind it is biochemical. The following applies: Table 6 additional results; read-out: huBPGM: synthase Enzyme IC50. The method in brief:
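BPGM (5 nM) with GAPDH (0.4 U/mL) was incubated with compound for 30 min at RT in pH 7.4 Tris buffer with 3.23 mM KH2PO4 and 1 mM DTT. Reaction ran 60 min with NAD, 3PG and GAP (substrate solution 2 mM, 20 μM and 800 μM). After koningic acid stop, NADH fluorescence was read, then resorufin from diaphorase/resazurin coupling.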

human Bisphosphoglycerate mutase (hBPGM), sequence (P07738 whole entry): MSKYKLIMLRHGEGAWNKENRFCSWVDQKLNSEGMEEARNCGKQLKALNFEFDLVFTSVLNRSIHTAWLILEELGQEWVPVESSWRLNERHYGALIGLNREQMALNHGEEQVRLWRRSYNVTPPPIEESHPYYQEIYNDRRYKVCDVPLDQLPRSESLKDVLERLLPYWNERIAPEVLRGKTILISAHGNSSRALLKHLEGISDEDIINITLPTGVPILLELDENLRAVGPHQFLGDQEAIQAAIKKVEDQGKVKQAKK
hBPGM, sequence (P07738 whole entry, looked up): as the sequence (P07738 whole entry) above

Usually EC50 stands for the concentration giving half of the maximal effect. What is called IC50 is the concentration that gives 50% inhibition. Consider `COC(=O)NCc1nc(C)c(-c2csc(-c3ccc(C(=O)O)cc3F)n2)s1` [Example 238], for which the EC50 in assay [1] was above 25000 nM. In addition, the IC50 on hBPGM was found to be 1300 nM.
For `Cc1nc(COc2ccccn2)sc1-c1cccc(-c2ccc(C(=O)O)cc2)c1` [Example 72], in that order: above 25000 nM and 480 nM.
On to `COC(=O)C(=O)NCc1nc(C)c(-c2csc(-c3cc(O)c(C(=O)O)cc3F)n2)s1` [Example 201], for which, in assay [1], the EC50 came out at 640 nM. Also, the IC50 at hBPGM is 110 nM.
For `Cc1nc(CNC2CCC2)sc1-c1csc(-c2cc(O)c(C(=O)O)cc2F)n1` [Example 186], in that order: 30 nM and 380 nM.
Take `Cc1nc(COc2cccnn2)sc1-c1csc(-c2cc(O)c(C(=O)O)cc2F)n1` [Example 131]: in assay [1], the EC50 came out at 40 nM. For the same compound, at hBPGM, the IC50 is 42 nM.
`Cc1nc(Cc2ccccc2)sc1-c1csc(-c2cc(O)c(C(=O)O)cc2F)n1` [Example 165]: the EC50 in assay [1] turned out to be 40 nM. Besides, the IC50 at hBPGM came to 240 nM.
As for `Cc1nc(CNC(=O)C2CCNCC2)sc1-c1csc(-c2cc(O)c(C(=O)O)cc2F)n1` [Example 125], the EC50 in assay [1] worked out at 340 nM. Moreover, on hBPGM, the IC50 was determined as 410 nM.
Taken in the same sequence, the figures for `Cc1nc(COC(=O)N(C)CCN(C)C)sc1-c1csc(-c2cc(O)c(C(=O)O)cc2F)n1` [Example 113] were 170 nM and 130 nM.
For `Cc1nc(COc2cccc(C#N)n2)sc1-c1cccc(-c2ccc(C(=O)O)c(O)c2)c1` [Example 256], in that order: 70 nM and 880 nM.
Taken in the same sequence, the figures for `Cc1nc(COc2cccc(N)n2)sc1-c1csc(-c2cc(O)c(C(=O)O)cc2F)n1` [Example 204] were 250 nM and 270 nM.
In the case of `Cc1nc(CNC(=O)OC2CC2)sc1-c1csc(-c2cc(O)c(C(=O)O)cc2F)n1` [Example 215], the concentration for a half-maximal effect (EC50) in assay [1] was determined as 55 nM. In addition, the IC50 at hBPGM was 95 nM.
As for `COC(=O)NCc1nc(C)c(-c2csc(-c3cc(O)c(CC(=O)O)cc3F)n2)s1` [Example 116], in assay [1], the EC50 is above 25000 nM. For the same compound, the IC50 on hBPGM came to 6900 nM.
For `COCCOCCOCCOCCOCC(=O)NCc1nc(C)c(-c2csc(-c3ccc(C(=O)O)c(O)c3)n2)s1` [Example 121], in that order: 3200 nM and 1800 nM.
Taken in the same sequence, the figures for `COC(=O)NCc1nc(C)c(-c2cccc(-c3ccc(C(=O)O)c(O)c3)c2)s1` [Example 272] were 520 nM and 290 nM.
As to `Cc1cnc(OCc2nc(C)c(-c3csc(-c4cc(O)c(C(=O)O)cc4F)n3)s2)nc1` [Example 132], the 50% effective concentration (EC50) in assay [1] was 50 nM. Besides, the IC50 at hBPGM was 45 nM.
Taken in the same sequence, the figures for `Cc1nc(CNc2ccccn2)sc1-c1cccc(-c2ccc(C(=O)O)c(O)c2)c1` [Example 246] were 110 nM and 820 nM.
For `COC(=O)NCc1nc(C)c(-c2csc(-c3cc(O)c(C(=O)NCC(=O)NCC(=O)O)cc3F)n2)s1` [Example 119], in that order: 1800 nM and 340 nM.
Taken in the same sequence, the figures for `Cc1nc(Cn2cccn2)sc1-c1cccc(-c2cc(O)c(C(=O)O)cc2F)c1` [Example 262] were 510 nM and 530 nM.
With `Cc1nc(C)c(-c2nc(-c3ccc(C(=O)O)c(O)c3)co2)s1` [Example 275], in assay [1], the EC50 was above 25000 nM. The IC50 on hBPGM turned out to be 5000 nM.
For `Cc1nc(Cn2ccccc2=O)sc1-c1cccc(-c2ccc(C(=O)O)c(O)c2)n1` [Example 101], in assay [1], the EC50 came out at 7300 nM. Further, the IC50 on hBPGM was determined as 760 nM.
Taken in the same sequence, the figures for `Cc1nc(COC(=O)N2CCCC2)sc1-c1csc(-c2cc(O)c(C(=O)O)cc2F)n1` [Example 154] were 40 nM and 170 nM.
Taken in the same sequence, the figures for `Cc1nc(Cc2cccnc2)sc1-c1csc(-c2cc(O)c(C(=O)O)cc2F)n1` [Example 228] were 55 nM and 87 nM.
For `Cc1nc(CNC(=O)C(C)(C)C)sc1-c1cccc(-c2ccc(C(=O)O)cc2)c1` [Example 73], in that order: above 25000 nM and 2200 nM.
As to `COC(=O)NCc1nc(C)c(-c2csc(-c3cc(C)c(C(=O)O)c(O)c3)n2)s1` [Example 208], the EC50 in assay [1] amounted to 420 nM. Also, the IC50 at hBPGM was 360 nM.
Taken in the same sequence, the figures for `Cc1nc(CNC(=O)C2CCN(C)CC2)sc1-c1csc(-c2cc(O)c(C(=O)O)cc2F)n1` [Example 126] were 240 nM and 460 nM.
For the compound `Cc1nc(COc2ncccn2)sc1-c1cccc(-c2ccc(C(=O)O)s2)n1` [Example 88], in assay [1], the EC50 came out at 12000 nM. In addition, the IC50 at hBPGM came to 1000 nM.
As for `Cc1nc(C(=O)c2ccn(C)n2)sc1-c1csc(-c2ccc(C(=O)O)c(O)c2)n1` [Example 190], the EC50 in assay [1] worked out at 610 nM. The IC50 on hBPGM came to 360 nM.
Taken in the same sequence, the figures for `Cc1nc(Cc2cccnc2)sc1-c1cccc(-c2cc(O)c(C(=O)O)cc2F)c1` [Example 99] were 280 nM and 400 nM.
For `Cc1nc(Cn2c(C#N)cccc2=O)sc1-c1cccc(-c2ccc(C(=O)O)c(O)c2)c1` [Example 103], in that order: 130 nM and 950 nM.
As to `COC(=O)NCc1nc(C)c(-c2csc(-c3cc(O)c(C(=O)O)cc3F)n2)s1` [Example 209], the EC50 in assay [1] is 470 nM. Moreover, at hBPGM, the IC50 was found to be 250 nM.
For `Cc1nc(COc2ncccn2)sc1-c1cccc(-c2ccc(C(=O)O)c(C#N)c2)n1` [Example 78], in that order: 70 nM and 180 nM.
For `COC(=O)NCc1nc(C)c(-c2ccnc(-c3ccc(C(=O)O)c(O)c3)n2)s1` [Example 185], in that order: 30 nM and 160 nM.
Taken in the same sequence, the figures for `Cc1nc(CNC(=O)C2CC2)sc1-c1cccc(-c2cc(O)c(C(=O)O)cc2F)n1` [Example 236] were 360 nM and 130 nM.
Regarding `Cc1nc(Cn2cccn2)sc1-c1cccc(-c2cc(O)c(C(=O)O)cc2F)n1` [Example 223], in assay [1], the EC50 was determined as 190 nM. The IC50 at hBPGM was determined as 150 nM.
For `COC(=O)NCc1nc(C)c(-c2nsc(-c3ccc(C(=O)O)c(O)c3)n2)s1` [Example 193], in that order: 360 nM and 170 nM.
For `Cc1nc(COC(=O)N(C)C)sc1-c1cccc(-c2ccc(C(=O)O)cc2)c1` [Example 67], in that order: 550 nM and 870 nM.
Taken in the same sequence, the figures for `Cc1nc(CNC(=O)c2cc[nH]n2)sc1-c1csc(-c2cc(O)c(C(=O)O)cc2F)n1` [Example 172] were 40 nM and 40 nM.
Turning to `Cc1nc(CNC2CCOC2)sc1-c1cccc(-c2ccc(C(=O)O)cc2)c1` (stereo not drawn) [Example 50], the EC50 in assay [1] is above 25000 nM. Moreover, at hBPGM, the IC50 is above 25000 nM.
Consider `Cc1nc(CNC(=O)OCC(F)(F)F)sc1-c1csc(-c2cc(O)c(C(=O)O)cc2F)n1` [Example 136], for which the EC50 in assay [1] was 90 nM. Also, the IC50 on hBPGM stood at 310 nM.
Taken in the same sequence, the figures for `Cc1nc(CNC(=O)C(=O)N(C)C)sc1-c1csc(-c2cc(O)c(C(=O)O)cc2F)n1` [Example 203] were 980 nM and 210 nM.
For `Cc1nc(CNC(=O)c2ccn(C)n2)sc1-c1csc(-c2cc(O)c(C(=O)O)cc2F)n1` [Example 173], in that order: 100 nM and 49 nM.
For `Cc1nc(Cn2cccnc2=O)sc1-c1csc(-c2cc(O)c(C(=O)O)cc2F)n1` [Example 181], in that order: 80 nM and 210 nM.
On to `Cc1nc(CNC(=O)OCCN(C)C)sc1-c1csc(-c2cc(O)c(C(=O)O)cc2F)n1` [Example 114], for which the EC50 in assay [1] came to 170 nM. The IC50 at hBPGM was 150 nM.
For `Cc1nc(Cc2ccccc2)sc1-c1csc(-c2cc(O)c(C(=O)O)cc2F)n1` [Example 182], in that order: 50 nM and 560 nM.
With `Cc1nc(COc2cnccn2)sc1-c1csc(-c2cc(O)c(C(=O)O)cc2F)n1` [Example 140], in assay [1], the EC50 amounted to 30 nM. In addition, the IC50 at hBPGM stood at 95 nM.
For `Cc1nc(COC(=O)N(C)C)sc1-c1csc(-c2cc(O)c(C(=O)O)cc2F)n1` [Example 158], in that order: above 25000 nM and 44 nM.
Taken in the same sequence, the figures for `Cc1nc(CN)sc1-c1csc(-c2ccc(C(=O)O)c(O)c2)c1` [Example 244] were above 25000 nM and 840 nM.
For `Cc1nc(CNC(=O)OC(C)C)sc1-c1csc(-c2cc(O)c(C(=O)O)cc2F)n1` [Example 234], in that order: 80 nM and 84 nM.
Consider `Cc1ccnc(OCc2nc(C)c(-c3csc(-c4cc(O)c(C(=O)O)cc4F)n3)s2)n1` [Example 133], for which the concentration giving a half-maximal response (EC50) in assay [1] was 80 nM. Also, the IC50 on hBPGM stood at 50 nM.
`Cc1nc(Cc2cccnc2)sc1-c1cccc(-c2cc(O)c(C(=O)O)cc2F)n1` [Example 217]: the EC50 in assay [1] amounted to 120 nM. Besides, at hBPGM, the IC50 worked out at 110 nM.
For `CC(=O)Nc1nc(C)c(-c2csc(-c3cc(O)c(C(=O)O)cc3F)n2)s1` [Example 194], in that order: 140 nM and 250 nM.
Taken in the same sequence, the figures for `Cc1nc(COc2ncccn2)sc1-c1cccc(-c2csc(C(=O)O)n2)n1` [Example 87] were 8700 nM and 3400 nM.
For `Cc1nc(C)c(-c2csc(-c3cc(O)c(C(=O)O)cc3F)c2)s1` [Example 254], in that order: 220 nM and 290 nM.
As to `COC(=O)NC(C)c1nc(C)c(-c2csc(-c3cc(O)c(C(=O)O)cc3F)n2)s1` (stereo not drawn) [Example 188], the EC50 in assay [1] stood at 160 nM. The IC50 at hBPGM was found to be 55 nM.
